Target: T1, human TLR7 (Homo sapiens, UniProt Q9NYK1)
T1 construct: host or cells: HEK-Blue TLR7 cells (engineered human embryonic kidney cells)
T1 sequence (Q9NYK1 27-1049): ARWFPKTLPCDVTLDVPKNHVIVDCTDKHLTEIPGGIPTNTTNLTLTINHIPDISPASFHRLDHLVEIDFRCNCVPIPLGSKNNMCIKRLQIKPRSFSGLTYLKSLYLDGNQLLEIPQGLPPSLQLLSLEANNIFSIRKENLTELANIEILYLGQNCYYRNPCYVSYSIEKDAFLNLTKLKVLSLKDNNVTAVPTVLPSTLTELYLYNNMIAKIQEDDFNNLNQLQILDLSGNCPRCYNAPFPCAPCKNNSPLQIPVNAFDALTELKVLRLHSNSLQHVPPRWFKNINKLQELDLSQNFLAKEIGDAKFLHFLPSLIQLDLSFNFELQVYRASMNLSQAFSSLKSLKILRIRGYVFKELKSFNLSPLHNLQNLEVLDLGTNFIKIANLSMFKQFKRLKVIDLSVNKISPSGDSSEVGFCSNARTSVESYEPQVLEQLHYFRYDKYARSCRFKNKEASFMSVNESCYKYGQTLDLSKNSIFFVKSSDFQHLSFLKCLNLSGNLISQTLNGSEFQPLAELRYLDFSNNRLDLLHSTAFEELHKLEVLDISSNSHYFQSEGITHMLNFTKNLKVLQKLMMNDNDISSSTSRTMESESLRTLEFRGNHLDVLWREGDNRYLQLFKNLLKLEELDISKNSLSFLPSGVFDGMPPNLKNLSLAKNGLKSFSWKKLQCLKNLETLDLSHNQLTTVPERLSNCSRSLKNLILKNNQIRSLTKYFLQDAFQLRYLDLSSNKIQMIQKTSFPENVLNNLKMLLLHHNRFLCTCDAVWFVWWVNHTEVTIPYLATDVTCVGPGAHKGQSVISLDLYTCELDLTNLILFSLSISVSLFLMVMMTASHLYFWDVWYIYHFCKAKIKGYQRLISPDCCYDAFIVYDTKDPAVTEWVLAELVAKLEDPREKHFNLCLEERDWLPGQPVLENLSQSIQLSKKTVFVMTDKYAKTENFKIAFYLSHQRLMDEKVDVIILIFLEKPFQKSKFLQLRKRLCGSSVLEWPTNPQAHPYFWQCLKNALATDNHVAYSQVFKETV
Assay: Human TLR7 agonist activity reporter assay (HEK-Blue TLR7 cells, SEAP reporter)
Format: cell-based
Details: 18 h treatment, average where assay repeated, Table A1, read-out: hTLR7 Agonism EC50
Description: This procedure describes a method for assaying human TLR7 (hTLR7) agonist activity of the compounds disclosed in this specification.
HEK-Blue™ TLR7 cells were added to each well of a 384-well tissue-culture plate (15,000 cells per well) and incubated 16-18 h at 37° C., 5% CO2. Compounds (100 nl) were dispensed into wells containing the HEK-Blue™ TLR cells and the treated cells were incubated at 37° C., 5% CO2. After 18 h treatment ten microliters of freshly-prepared Quanti-Blue™ reagent (Invivogen) was added to each well, incubated for 30 min (37° C., 5% CO2) and SEAP levels measured using an Envision plate reader (OD=620 nm). The half maximal effective concentration values (EC50; compound concentration which induced a response halfway between the assay baseline and maximum) were calculated.

Structure (SMILES) | EC50 [nM]
CCCCNc1nc(N)nc2cnn(Cc3cc(CN4CCC5CCC(C5)C4)ccc3OC)c12 (stereo not shown) [Compound 103, 1-{[5-({3-azabicyclo-[4.2.1]nonan-3-yl}methyl)-2-methoxyphenyl]methyl}-N7-butyl-1H-pyrazolo[4,3-d]pyrimidine-5,7-diamine] | 193
CCCCNc1nc(N)nc2cnn(Cc3cc(CN4CC5CCCC(C5)C4)ccc3OC)c12 [Compound 104, 1-{[5-({3-azabicyclo-[3.3.1]nonan-3-yl}methyl)-2-methoxyphenyl]methyl}-N7-butyl-1H-pyrazolo[4,3-d]pyrimidine-5,7-diamine] | 630
CCCCNc1nc(N)nc2cnn(Cc3cc(CN4CC5CCCC(C4)C5O)ccc3OC)c12 (stereo not shown) [Compound 107, 3-[(3-{[5-amino-7-(butyl-amino)-1H-pyrazolo[4,3-d]pyrimidin-1-yl]methyl}-4-methoxyphenyl)methyl]-3-aza bicyclo[3.3.1]nonan-9-ol] | 750
CCCCNc1nc(N)nc2cnn(Cc3cc(CN4CC(O)C4)ccc3OC)c12 [Compound 108, 1-[(3-{[5-amino-7-(butyl-amino)-1H-pyrazolo[4,3-d]pyrimidin-1-yl]methyl}-4-methoxyphenyl)me-thyl]azetidin-3-ol] | 146
CCCCNc1nc(N)nc2cnn(Cc3cc(CNC45CC(C4)C5)ccc3OC)c12 [Compound 110, 1-({5-[({bicyclo[1.1.1]-pentan-1-yl}amino)methyl]-2-methoxyphenyl}-methyl)-N7-butyl-1H-pyrazolo[4,3-d]pyrimidine-5,7-diamine] | 447
CCCCNc1nc(N)nc2cnn(Cc3cc(CNC4CC5(CC5)C4)ccc3OC)c12 [Compound 111, N7-butyl-1-({2-methoxy-5-[({spiro[2.3]hexan-5-yl}amino)methyl]phenyl}methyl)-1H-pyrazolo[4,3-d]pyrimidine-5,7-diamine] | 358
CCCCNc1nc(N)nc2cnn(Cc3cc(CNC(C)(C)C)ccc3OC)c12 [Compound 112] | 249
CCCCNc1nc(N)nc2cnn(Cc3cc(CN4CC5CCS(=O)(=O)C5C4)ccc3OC)c12 (stereo not shown) [Compound 113, 5-[(3-{[5-amino-7-(butyl-amino)-1H-pyrazolo[4,3-d]pyrimidin-1-yl]methyl}-4-methoxyphenyl)methyl]-hexahydro-2H-1λ6-thieno-[2,3-c]pyrrole-1,1-dione] | 493
CCCCNc1nc(N)nc2cnn(Cc3cc(CN4CCC4)ccc3OC)c12 [Compound 115, 1-({5-[(azetidin-1-yl)methyl]-2-methoxyphenyl}-methyl)-N7-butyl-1H-pyrazolo[4,3-d]pyrimidine-5,7-diamine] | 172
CCC[C@@H](CCO)Nc1nc(N)nc2cnn(Cc3cc(CN[C@H]4CCOC[C@H]4O)ccc3OC)c12 [Compound 179, (3S,4S)-4-[({3-[(5-amino-7-{[(3S)-1-hydroxyhexan-3-yl]amino}-1H-pyrazolo[4,3-d]pyrimidin-1-yl)methyl]-4-methoxyphenyl}methyl)-amino]oxan-3-ol] | 405
CCC[C@@H](CCO)Nc1nc(N)nc2cnn(Cc3cc(CN[C@@H]4COCC[C@H]4O)ccc3OC)c12 [Compound 180, (3R,4R)-3-[({3-[(5-amino-7-{[(3S)-1-hydroxyhexan-3-yl]amino}-1H-pyrazolo[4,3-d]pyrimidin-1-yl)methyl]-4-methoxyphenyl}methyl)-amino]oxan-4-ol] | 213
CCC[C@@H](CCO)Nc1nc(N)nc2cnn(Cc3cc(CN[C@H]4COCC[C@@H]4O)ccc3OC)c12 [Compound 182, (3S,4S)-3-[({3-[(5-amino-7-{[(3S)-1-hydroxyhexan-3-yl]amino}-1H-pyrazolo[4,3-d]pyrimidin-1-yl)methyl]-4-methoxyphenyl}methyl)-amino]oxan-4-ol] | 197
CCC[C@@H](CCO)Nc1nc(N)nc2cnn(Cc3cc(CN[C@H]4COC[C@@H]4O)ccc3OC)c12 [Compound 184] | 339

Next, values leading:

EC50 [nM] | Structure (SMILES)
352 | CCCCNc1nc(N)nc2cnn(Cc3cc(CNC4CCOCC4)ccc3OC)c12 [Compound 101, N7-butyl-1-[(2-methoxy-5-{[(oxan-4-yl)amino]-methyl}phenyl)methyl]-1H-pyrazolo[4,3-d]pyrimidine-5,7-diamine]
658 | CCCCNc1nc(N)nc2cnn(Cc3cc(CN4CCC5CCC(C5)C4)ccc3OC)c12 (stereo not shown) [Compound 102, 1-{[5-({3-azabicyclo-[4.2.1]nonan-3-yl}methyl)-2-methoxyphenyl]methyl}-N7-butyl-1H-pyrazolo[4,3-d]pyrimidine-5,7-diamine]
502 | CCCCNc1nc(N)nc2cnn(Cc3cc(CN4CC5CCCCCC54)ccc3OC)c12 (stereo not shown) [Compound 106, 1-{[5-({8-azabicyclo-[5.2.0]nonan-8-yl}methyl)-2-methoxyphenyl]methyl}-N7-butyl-1H-pyrazolo[4,3-d]pyrimidine-5,7-diamine]
51.3 | CCCCNc1nc(N)nc2cnn(Cc3cc(CN4CCN(C)CC4)ccc3OC)c12 [Compound 109, N7-butyl-1-({2-methoxy-5-[(4-methylpiperazin-1-yl)methyl]phenyl}methyl)-1H-pyrazolo[4,3-d] pyrimidine-5,7-diamine]
308 | CCC[C@@H](CCO)Nc1nc(N)nc2cnn(Cc3cc(CN[C@@H]4COC[C@H]4O)ccc3OC)c12 [Compound 181, (3S,4R)-4-[({3-[(5-amino-7-{[(3S)-1-hydroxyhexan-3-yl]amino}-1H-pyrazolo[4,3-d]pyrimidin-1-yl)methyl]-4-methoxyphenyl}methyl)-amino]oxolan-3-ol]
479 | CCC[C@@H](CCO)Nc1nc(N)nc2cnn(Cc3cc(CN[C@@H]4CCOC[C@H]4O)ccc3OC)c12 [Compound 183, (3S,4R)-4-[({3-[(5-amino-7-{[(3S)-1-hydroxyhexan-3-yl]amino}-1H-pyrazolo[4,3-d]pyrimidin-1-yl)methyl]-4-methoxyphenyl}methyl)-amino]oxan-3-ol]

— US20230118688A1, “1H-PYRAZOLO[4,3-d]PYRIMIDINE COMPOUNDS AS TOLL-LIKE RECEPTOR 7 (TLR7) AGONISTS” (BRISTOL-MYERS SQUIBB COMPANY, priority 2020, published 2023)
